The values that follow come from patent US9044453B2, “Long-acting injectable moxidectin formulations and novel moxidectin crystal forms” (MERIAL, INC., priority 2011, dated 2015).

This series is described as follows: Moisture Sorption Gravimetric Analysis (SGA), hygroscopicity. The series is classed as physicochemical. As to conditions: isothermal 25° C., 5 to 95 % RH. Here is the method:
Moisture Sorption Gravimetric Analysis (SGA). Utilizing a dynamic SGA100 from VTI, adsorption and desorption profiles were obtained with the following conditions: 1) Isothermal @ 25° C.; 2) Maximum Equilibration Time of 10 minutes; 3) 0.0010 wt % in 5 minutes; and 4) % RH (Relative Humidity) Steps of 5 to 95, and 95 to 5 @ 5% increments.

As to `CO/N=C1\C[C@]2(C[C@@H]3C[C@@H](C/C=C(\C)C[C@@H](C)/C=C/C=C4\CO[C@@H]5[C@H](O)C(C)=C[C@@H](C(=O)O3)[C@]45O)O2)O[C@H](/C(C)=C/C(C)C)[C@H]1C` [amorphous moxidectin, moxidectin], the hygroscopicity entry is on record as “slightly hygroscopic”. As for `CO/N=C1\C[C@]2(C[C@@H]3C[C@@H](C/C=C(\C)C[C@@H](C)/C=C/C=C4\CO[C@@H]5[C@H](O)C(C)=C[C@@H](C(=O)O3)[C@]45O)O2)O[C@H](/C(C)=C/C(C)C)[C@H]1C` [Crystalline moxidectin, moxidectin], the hygroscopicity result is “almost non-hygroscopic”.
